One data set has as its target T1, TycA (Brevibacillus parabrevis, UniProt P09095).
T1 construct: this wild-type tycA cDNA encoding the A-, T-, and E-domains was subcloned into a pSU18 vector; made in house; host or cells: Escherichia coli BL21(DE3)
T1 sequence (P09095 with tags, fused parts or gaps): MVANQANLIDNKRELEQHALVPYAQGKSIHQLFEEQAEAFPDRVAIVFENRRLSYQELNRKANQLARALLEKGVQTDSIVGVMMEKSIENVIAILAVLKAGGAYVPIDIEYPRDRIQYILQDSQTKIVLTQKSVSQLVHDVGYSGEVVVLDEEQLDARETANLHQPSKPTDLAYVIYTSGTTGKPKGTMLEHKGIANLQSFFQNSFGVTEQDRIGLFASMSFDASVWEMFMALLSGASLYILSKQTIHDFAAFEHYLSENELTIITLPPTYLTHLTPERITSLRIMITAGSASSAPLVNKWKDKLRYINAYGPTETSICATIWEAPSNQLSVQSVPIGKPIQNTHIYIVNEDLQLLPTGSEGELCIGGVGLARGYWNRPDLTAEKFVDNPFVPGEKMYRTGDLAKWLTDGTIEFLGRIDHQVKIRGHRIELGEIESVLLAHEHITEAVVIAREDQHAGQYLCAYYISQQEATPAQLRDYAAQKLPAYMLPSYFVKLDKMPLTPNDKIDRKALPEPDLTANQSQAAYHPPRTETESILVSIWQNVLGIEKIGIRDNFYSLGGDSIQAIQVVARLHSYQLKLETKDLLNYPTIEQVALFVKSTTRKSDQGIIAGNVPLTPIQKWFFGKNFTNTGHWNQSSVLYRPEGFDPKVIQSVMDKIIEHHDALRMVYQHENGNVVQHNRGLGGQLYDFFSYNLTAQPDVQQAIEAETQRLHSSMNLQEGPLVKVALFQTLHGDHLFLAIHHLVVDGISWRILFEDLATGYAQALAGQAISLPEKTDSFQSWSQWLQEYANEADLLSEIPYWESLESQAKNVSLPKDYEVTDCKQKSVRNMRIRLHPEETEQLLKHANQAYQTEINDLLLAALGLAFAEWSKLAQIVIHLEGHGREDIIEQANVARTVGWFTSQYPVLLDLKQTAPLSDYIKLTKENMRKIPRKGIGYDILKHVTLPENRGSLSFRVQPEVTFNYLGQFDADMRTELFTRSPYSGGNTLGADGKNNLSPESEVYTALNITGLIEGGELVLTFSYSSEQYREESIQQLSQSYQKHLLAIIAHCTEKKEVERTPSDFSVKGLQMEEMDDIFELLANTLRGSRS
Put plainly: CoA ligase reaction kinetics, TycA. Type of data set: biochemical, Brevibacillus brevis. As for the experimental part:
Under steady-state conditions, (S)-α-phenylalanine, (R)-β-phenylalanine, and (2R,3S)-phenylisoserine at 5, 10, 20, 40, 80, 160, 250, 500, 1000 and 2000 μM were separately incubated with TycA or TycA-S563A (20 μg) for 30 min. At the end of each reaction, and prior to mass spectrometry analysis, acetyl CoA (1 μM) was added as the internal standard to each sample to correct for variations of the analyte. The products of the enzyme-catalyzed reaction were quantified by a liquid chromatography multiple reaction monitoring (LC-ESI-MRM) mass spectrometry technique (Anderson & Hunter, Mol. Cell. Proteomics 5: 573-588 (2006)) on the Quattro-Premier Electro-Spray Mass Spectrometer coupled with Acquity® UPLC system fitted with a C18 Ascentis Express column (2.5×50 mm, 2.7 μm) at 30° C. An aliquot (5 μL) of each sample was loaded onto the column and the analytes were eluted with a solvent gradient of acetonitrile (Solvent A) in 0.05% triethylamine in distilled water (Solvent B). Elution was held at 2.5% Solvent A for 3.17 min, increased to 100% Solvent A over 5 sec with a 2-min hold, and then returned to 2.5% Solvent A over 5 sec with a 50-sec hold. The flow rate employed was 0.4 mL/min. The effluent from the chromatography column was directed to the mass spectrometer where the first quadrupole mass analyzer (in negative ion mode) was set to select for the molecular ion of a biosynthesized acyl CoA product. The selected ion was then directed to a collision gas chamber where the collision energy was optimized to maximize the abundance of a single signature fragment ion (m/z 408, characteristic of acyl CoA thioesters) resolved in the second quadrupole mass analyzer by the MRM method. The peak area under the curve of fragment ion m/z 408 for each biosynthetic phenylpropionyl CoA thioester was converted to concentration by comparing the peak area of the same ion produced by authentic CoA (at 0.05, 0.1, 0.2, 0.4, 0.8, 1.6, 3.2, 6.4, 12.5, 25, 50, 100 μM) using linear regression analysis.
The KM values of TycA and TycA-S563A for CoA were assessed by incubating each enzyme separately with (S)-α-phenylalanine (1 mM), MgCl2 (3 mM), ATP (1 mM), and CoA at 0.05, 0.1, 0.2, 0.4, 0.8, 1.6, 3.2, 6.4, 12.8 and 25.6 mM at 31° C. for 20 min. At the end of each reaction and prior to mass spectrometry analysis, acetyl CoA (1 μM) was added as the internal standard to each sample to correct for variations of the analyte. The products of the enzyme-catalyzed reaction were quantified by LC-ESI-MRM, and the monitored fragment ion (m/z 408) derived from the CoA moiety of the thioester analytes in the effluent was quantified identically to the procedure described earlier herein.

Another data set concerns bacterial CoA Ligases. The conditions noted are these: literature range; cited from earlier work.
A further data set deals with 4-Chlorobenzoate-CL. The conditions noted are these: cited from earlier work.
The target of a further data set is Propionyl-CL (Salmonella typhimurium, UniProt P55912). The conditions noted are these: cited from earlier work.
Chain of Propionyl-CL (P55912 whole entry): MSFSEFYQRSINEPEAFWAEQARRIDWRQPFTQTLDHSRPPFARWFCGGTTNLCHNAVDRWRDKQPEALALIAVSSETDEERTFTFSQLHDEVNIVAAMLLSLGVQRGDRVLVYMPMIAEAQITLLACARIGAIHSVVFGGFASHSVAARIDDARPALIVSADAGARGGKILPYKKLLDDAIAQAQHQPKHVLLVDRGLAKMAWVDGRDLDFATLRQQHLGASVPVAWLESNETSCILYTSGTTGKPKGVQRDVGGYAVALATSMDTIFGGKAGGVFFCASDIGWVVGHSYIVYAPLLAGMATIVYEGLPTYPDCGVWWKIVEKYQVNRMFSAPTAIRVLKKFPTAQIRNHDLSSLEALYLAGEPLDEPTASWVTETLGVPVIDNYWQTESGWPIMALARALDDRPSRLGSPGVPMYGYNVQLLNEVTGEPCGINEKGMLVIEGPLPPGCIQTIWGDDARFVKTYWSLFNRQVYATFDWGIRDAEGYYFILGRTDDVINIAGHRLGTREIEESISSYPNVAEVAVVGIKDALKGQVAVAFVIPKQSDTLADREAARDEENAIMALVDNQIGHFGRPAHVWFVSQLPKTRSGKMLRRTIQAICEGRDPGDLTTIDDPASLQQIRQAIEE
The subject of the next data set is Phenylacetate-CL. The conditions noted are these: cited from earlier work.
Another data set has as its system Benzoate-CL. The conditions noted are these: cited from earlier work.
Data set [1] has as its system C[C@@](N)(C(=O)O)c1ccccc1. Put plainly: purified protein, by the assay type.
A further data set concerns N[C@H](CC(=O)O)c1ccccc1. Put plainly: purified protein, by the assay type.
In data set [2] the test system is CC(C)(COP(=O)(O)OP(=O)(O)OC[C@H]1O[C@@H](n2cnc3c(N)ncnc32)[C@H](O)[C@@H]1OP(=O)(O)O)[C@@H](O)C(=O)NCCC(=O)NCCS. Put plainly: purified protein, by the assay type. The conditions noted are these: other: TycA-S563A, CoA 1 mM, ATP 1 mM, MgCl2 3 mM, 31° C., CoA with (S)-α-Phe as cosubstrate, pH 8.0.
Description: At the end of each reaction, and prior to mass spectrometry analysis, acetyl CoA (1 μM) was added as the internal standard to each sample to correct for variations of the analyte. The products of the enzyme-catalyzed reaction were quantified by a liquid chromatography multiple reaction monitoring (LC-ESI-MRM) mass spectrometry technique (Anderson & Hunter, Mol. Cell. Proteomics 5: 573-588 (2006)) on the Quattro-Premier Electro-Spray Mass Spectrometer coupled with Acquity® UPLC system fitted with a C18 Ascentis Express column (2.5×50 mm, 2.7 μm) at 30° C. An aliquot (5 μL) of each sample was loaded onto the column and the analytes were eluted with a solvent gradient of acetonitrile (Solvent A) in 0.05% triethylamine in distilled water (Solvent B). Elution was held at 2.5% Solvent A for 3.17 min, increased to 100% Solvent A over 5 sec with a 2-min hold, and then returned to 2.5% Solvent A over 5 sec with a 50-sec hold. The flow rate employed was 0.4 mL/min. The effluent from the chromatography column was directed to the mass spectrometer where the first quadrupole mass analyzer (in negative ion mode) was set to select for the molecular ion of a biosynthesized acyl CoA product. The selected ion was then directed to a collision gas chamber where the collision energy was optimized to maximize the abundance of a single signature fragment ion (m/z 408, characteristic of acyl CoA thioesters) resolved in the second quadrupole mass analyzer by the MRM method. The peak area under the curve of fragment ion m/z 408 for each biosynthetic phenylpropionyl CoA thioester was converted to concentration by comparing the peak area of the same ion produced by authentic CoA (at 0.05, 0.1, 0.2, 0.4, 0.8, 1.6, 3.2, 6.4, 12.5, 25, 50, 100 μM) using linear regression analysis. The initial velocity (vo) of (S)-α-phenylalanyl-CoA, (R)-β-phenylalanyl-CoA and (2R,3S)-phenylisoserinyl-CoA made in separate assays was plotted against substrate concentration and fit by non-linear regression to the Michaelis-Menten equation (R^2 was typically between 0.90 and 0.99) to calculate the Michaelis parameters (KM and kcat).
The KM values of TycA and TycA-S563A for CoA were assessed by incubating each enzyme separately with (S)-α-phenylalanine (1 mM), MgCl2 (3 mM), ATP (1 mM), and CoA at 0.05, 0.1, 0.2, 0.4, 0.8, 1.6, 3.2, 6.4, 12.8 and 25.6 mM at 31° C. for 20 min. At the end of each reaction and prior to mass spectrometry analysis, acetyl CoA (1 μM) was added as the internal standard to each sample to correct for variations of the analyte. The products of the enzyme-catalyzed reaction were quantified by LC-ESI-MRM, and the monitored fragment ion (m/z 408) derived from the CoA moiety of the thioester analytes in the effluent was quantified identically to the procedure described earlier herein. […]
A further data set has as its system Cinnamate-CL. The conditions noted are these: cited from earlier work.
The test system of data set [3] is mutation of phenylacetate CoA Ligase. The conditions noted are these: mutated enzyme; reaction to make β-Phenylpropanyl CoA; reduced from low mM; cited from earlier work.
Substrate in data set [4]: CC(=O)NCCS
Description: N-acetylcysteamine ligase reaction kinetics, TycA. Type of data set: biochemical, Brevibacillus brevis. The conditions noted are these: other: TycA with NAC; NAC with (S)-α-Phe as cosubstrate.
Description: The reactions were quenched by acidification to a pH of about 2 (10% formic acid in distilled water). […] The samples were analyzed on a Quattro-Premier Electro-Spray Mass Spectrometer coupled with Acquity® UPLC system fitted with a C18 Ascentis Express column (2.5×50 mm, 2.7 μm) at 30° C. An aliquot (5 μL) of each sample was loaded onto the column and the analytes were eluted with a solvent gradient of (Solvent A) in 0.05% triethylamine in distilled water (Solvent B) (held at 2.5% Solvent A for 3.17 mM, increased to 100% A over 5 sec with a 2-min hold, and then returned to 2.5% Solvent A over 5 sec with a 50-sec hold) at a flow rate of 0.4 mL/min. In brief, the effluent from the chromatography column was directed to the Quattro Premier ESI mass spectrometer, in MRM scan mode, to quantify the biosynthetic acyl SNAC products. […] A standard curve was used to convert the peak area under the curve of the monitored fragment ion to concentration for each biosynthetic phenylpropionyl SNAC.
Authentic (5)-α-phenylalanyl, (R/S)-β-phenylalanyl- and (2R,3S)-phenylisoserinyl-SNAC were used to construct the standard curves by correlating the peak area under the curve of the monitored ion to concentration of the standard (at 0.16, 0.32, 0.64, 1.3, 2.5, 5, 10, 20, 40, 80, 160 and 320 μM) using linear regression analysis. […]

Setting [5] is: other: TycA-S563A with NAC, NAC with (S)-α-Phe as cosubstrate.
Where [6] appears, read: other: TycA-S563A, CoA 1 mM, ATP 1 mM, MgCl2 3 mM, 31° C., CoA with (S)-α-Phe as cosubstrate, pH 8.0.

Consider `CC(C)(COP(=O)(O)OP(=O)(O)OC[C@H]1O[C@@H](n2cnc3c(N)ncnc32)[C@H](O)[C@@H]1OP(=O)(O)O)[C@@H](O)C(=O)NCCC(=O)NCCS` [CoA], for which the Km on TycA (TycA, CoA 1 mM, ATP 1 mM, MgCl2 3 mM, 31° C., CoA with (S)-α-Phe as cosubstrate) was 1980 ± 175 µM; in the data set on bacterial CoA Ligases it was 100 to 940 µM; with 4-Chlorobenzoate-CL, 310 µM; at Propionyl-CL, 215 µM; with Phenylacetate-CL, 940 µM; in the data set with Benzoate-CL, 100 µM. Moreover, the “kcat^CoA” value on TycA (TycA, turnover with CoA at apparent saturation, CoA with (S)-α-Phe as cosubstrate) was 0.0125 ± 0.00083 s⁻¹. Besides, the “higher KM of TycA compared to that of TycA-S563A” value on TycA (dilution series of CoA with 1 mM (S)-α-Phe) is approximately 2.5 fold. In addition, the kcat in the data set on 4-Chlorobenzoate-CL is 9.3 s⁻¹; at Propionyl-CL, 42 s⁻¹.

With “TycA-S563A (Brevibacillus parabrevis; S563A)”, the Km came out at 37.8 ± 1.6 µM in data set [1] (setting [5]); 33.9 ± 4.0 µM in data set [1] (setting [6]); 58.9 ± 6.4 µM with N[C@H](CC(=O)O)c1ccccc1 (setting [5]); 62.3 ± 1.0 µM in the data set with N[C@H](CC(=O)O)c1ccccc1 (setting [6]); 804 ± 26 µM in [2]. Further, the turnover number (kcat) in [1] (setting [5]) came out at 0.003333 ± 3.33e-05 s⁻¹; with N[C@H](CC(=O)O)c1ccccc1 (setting [5]), 0.0004 ± 1.67e-05 s⁻¹; in data set [2], 0.015 ± 0.0013 s⁻¹.

With `O=C(O)c1ccccc1` [benzoate], in the data set on Benzoate-CL, the Michaelis-Menten constant (Km) is 11 µM and the kcat is listed as 26,000 min^−1.

Regarding `O=C(O)/C=C/c1ccccc1` [Cinnamate], in the data set with Cinnamate-CL, the Km is 190 µM and the kcat is 0.475 s⁻¹.

For `CCC(=O)O` [propionate], on Propionyl-CL, the Michaelis constant (Km) was 20 µM and the kcat was 33 s⁻¹.

For the molecule `NC(CC(=O)O)c1ccccc1` (stereo not drawn) [β-Phe], the Km in [3] was 0.068 mM.

B1: TycA (Brevibacillus parabrevis) (protein)
chain: T1 sequence (P09095 with tags, fused parts or gaps)
notes: this wild-type tycA cDNA encoding the A-, T-, and E-domains was subcloned into a pSU18 vector; made in house; host or cells: Escherichia coli BL21(DE3)
As to B1, in data set [4], the Km stood at 153 ± 22 µM and the kcat stood at 0.0015 ± 0.000167 s⁻¹.

These data come from patent publication US20170342451A1, “BIOSYNTHESIS OF PACLITAXEL INTERMEDIATE” (Board of Trustees of Michigan State University, priority 2012, published 2017).
